Source: paper PMC12311729, “Probing the Mechanism of L‑DOPA 2,3-Dioxygenase Using Synthetic Derivatives of 3,4-Dihydroxyhydrocinnamic Acid” (ACS Omega, 2025)
Where two headings read alike, the source gives them in different places. Blank lines part the entries; values can stand above or below the molecule they belong to.

Experiments:
[1] = design: method as in Biochemistry 2021, 60, 32, 2492–2507; conditions: percentage of L-DOPA; ref Biochemistry 2021, 60, 32, 2492–2507; cited from earlier work
[2] = design: method as in Biochemistry 2021, 60, 32, 2492–2507; conditions: ref Biochemistry 2021, 60, 32, 2492–2507, cited from earlier work
[3] = target: T1, L-DOPA 2,3-dioxygenase from S. lincolnensis (LmbB1) (Streptomyces lincolnensis, UniProt Q54354); design: method as in Biochemistry 2021, 60, 32, 2492–2507; conditions: percentage of L-DOPA; ref Biochemistry 2021, 60, 32, 2492–2507; cited from earlier work
[4] = design: method as in Biochemistry 2021, 60, 32, 2492–2507; conditions: percentage of L-DOPA; ref Biochemistry 2021, 60, 32, 2492–2507; cited from earlier work; remark: listed apart in the source
[5] = target: T2, L-DOPA 2,3-dioxygenase from S. hygroscopicus jingganensis (ShjDDO) (Streptomyces hygroscopicus, UniProt H2JL11); design: method as in Biochemistry 2021, 60, 32, 2492–2507; conditions: percentage of L-DOPA; ref Biochemistry 2021, 60, 32, 2492–2507; cited from earlier work
[6] = Cyclic voltammetry (redox potentials on a GCE); format: physicochemical
Source text: Reduction and oxidation potentials were experimentally performed by cyclic voltammetry (CV) at biological pH 7.4, as previously described. All samples were run on a CH Instruments 600E Potentiostat in a one-compartment cell equipped with a three-electrode system arrangement. The three-electrode system included a saturated calomel electrode as the reference electrode, a platinum wire as the auxiliary electrode, and a glassy carbon electrode (GCE, d = 2 mm) as the working electrode. The GCE was polished between each sample scan with an aqueous slurry of alumina powder on a microcloth pad. The electrodes were rinsed with distilled water prior to the next scan. All scans were conducted under nitrogen for oxygen displacement and at room temperature (rt, 25 ± 1 °C). All samples were prepared as close to the scan as possible (approximately 2 min each). Each sample (5 mL) contained 0.1 mM catecholic substrate and 1 μM DMSO in 0.1 M phosphate buffer at a pH of 7.4 or 6.0. […] The cyclic voltammograms for the compounds at both pH 6.0 and 7.4 are available in Figures S40–S51.

[7] = target: T1, L-DOPA 2,3-dioxygenase from S. lincolnensis (LmbB1); assay: UV-visible steady-state assay of L-DOPA 2,3-dioxygenase (LmbB1); format: biochemical
Protocol: (§1) Purified, reconstituted L-DOPA 2,3-dioxygenases were assessed for activity by monitoring the cleavage of catecholic substrates using UV–visible spectroscopy. 3,4-Dihydroxyhydrocinnamic acid (DHHCA, 3) was purchased from Sigma-Aldrich. 6-CyanoDHHCA (5) and 6-bromoDHHCA (4) were synthesized as described above.
(§2) Molecular oxygen (AirGas) was bubbled directly into the reaction buffer through a glass-bonded silica gas diffuser (Bubblemac Industries, Inc.) or as a gas mixture blended with air (AirGas). Solutions were bubbled with oxygen for several minutes prior to use and for the duration of the experiment. To determine the K M for oxygen (i.e., K MO2), L-DOPA 2,3-dioxygenases (0.25–4.0 μM) were reacted with a saturating concentration of the catecholic substrate DHHCA/6-X-DHHCA derivatives (2–10× the K M sufficient to achieve k cat) and various oxygen concentrations (21–100% or 270–1300 μM at 22 °C). The concentration of oxygen was varied by changing the percentage of oxygen in the blend using a galvanic oxygen sensor and oxygen monitor (AirGas) and then bubbling solutions, as described above. Molecular oxygen percentages were converted to molar concentrations using a reference temperature of 22 °C. The reaction of L-DOPA 2,3-dioxygenases with DHHCA/6-X-DHHCA derivatives as a function of oxygen concentration was followed by the appearance of the steady-state cleavage product by using UV–visible spectroscopy.
(§3) The extinction coefficients for steady-state cleavage products of DHHCA and synthetic 6-X-DHHCA derivatives were determined by reacting various concentrations of DHHCA/6-X-DHHCA derivatives at 22 °C with a 10-fold stoichiometric excess of enzyme (quantified by Fe^II–see Reconstitution) in 50 mM HEPES buffer with 154 mM NaCl at pH 7.5, bubbled with 100% oxygen to a final concentration of 780–910 μM, depending on the volume of oxygenated buffer that comprised the reaction (60–70%). Substrate solutions were prepared from authentic synthetic standards using an analytical balance, and reactions were run to completion as assessed by the appearance of the steady-state product. The λmax and extinction coefficients of DHHCA, 6-cyanoDHHCA, and 6-bromoDHHCA were determined herein as ε380 = 40 740 ± 820 M^–1cm^–1, ε385 = 33 256 ± 484 M^–1cm^–1, and ε380 = 35 282 ± 1190 M^–1cm^–1, respectively (Figure S52).
(§4) Steady-state kinetic data were obtained through a UV–visible spectroscopic assay. Initial rates were obtained from the slopes of the linear regions of the progress curves and plotted versus substrate concentration to yield a hyperbola, which was analyzed using the Michaelis–Menten expression and nonlinear least-squares fitting (NLSF) with Origin 6.0 (Microcal). Two possible derivations of the Michaelis–Menten expression were used: 1) the traditional expression y = k cat × x/(K M + x), where y is Rate/E 0 or the rate of product formation (μM/min) divided by the starting enzyme concentration (μM), x is substrate concentration (μM) and k SP (also known as k cat × K M ^–1)–that is, the second-order rate constant of enzyme and substrate–is extracted from the fitted constants; or 2) the alternative derivation that extracts k SP and k cat directly from the fit: y = (k SP × x)/((1 + k SP × x)/k cat), and where y is Rate/E 0 or the rate of product formation (μM/min) divided by the starting enzyme concentration (μM), x is substrate concentration (μM), k SP is equivalent to k cat×K M ^–1, and K M is extracted from k cat/k cat×K M ^–1.

[8] = target: T2, L-DOPA 2,3-dioxygenase from S. hygroscopicus jingganensis (ShjDDO); assay: UV-visible steady-state assay of L-DOPA 2,3-dioxygenase (ShjDDO); format: biochemical
Protocol: as §1, §2, §3, §4

[9] = Determination of pKa values by spectrophotometric titration
Protocol: A buffer system utilizing five different buffers was prepared to cover the pH range of 3.0 to 12.50. A Thermo Scientific Orion Star A211 pH meter was used to measure and determine the pH of each buffer. The pH meter was calibrated using three- and four-point calibration with pH values of 4.00, 7.01, and 10.01 and 4.00, 7.01, 10.01, and 12.00, respectively.
The buffer systems were prepared as previously described and included: NaOAc/HOAc buffers (C = 0.1 M; I = 0.1 M) were used to cover the pH range of 3.0 to 5.50. KH2PO4/K2HPO4 buffers (C = 0.05 M; I = 0.1 M) were used to cover the pH range of 6.00 to 8.00. CHES buffers (C = 0.05 M; I = 0.1 M) were used to cover the pH range of 8.50 to 10.50. Na2HPO4/Na3PO4 buffers (C = 0.05 M; I = 0.1 M) were used to cover the pH range of 11.00 to 12.00. KCl buffers (C = 0.1 M; I = 0.1 M) were used to cover the pH range of 12.00 to 12.50.
The absorbance spectra of the compounds were determined at each pH as previously described. Briefly, a stock solution was prepared for each compound by weighing 2 mg of the compound using a high-precision analytical balance. Each compound was then dissolved in DMSO at a concentration of 10 mM. A UV-transparent 96-well microplate (Corning clear acrylic 96-well UV plate with a UV-transparent flat bottom) was loaded with 196 μL of buffer solution and 4 μL of the catechol stock in each well to get a final concentration of 200 μM. DMSO (4 μL) was added to 196 μL of the appropriate buffer to produce a blank solution for each buffer.
The 96-well plate was loaded into the microplate reader and incubated at 30 °C and shaken for 10 min before the reading. Absorbance readings were completed by using a Synergy HTX 15032517 microplate reader. Each well was read at wavelengths from 210 to 600 nm with 2-nm increments for each scan over a duration of 60 min.
The data were analyzed as previously described. Raw UV-spectra scans were exported to the Excel program. They were first processed by subtracting the reading of the blank solutions from the reading of each compound at the corresponding wavelengths. […] Finally, the spectral difference between the pH 3.0 buffer and the spectra at all other pH values was plotted. Additionally, the spectral difference between the pH 4.0 buffer and the spectra at all other higher pH values was plotted. The wavelengths for the maximum positive and negative absorbance were determined by using the graphs of the spectral difference plots, both for the pH 3.0 and pH 4.0 spectral difference plots. The absolute maximum positive and total absorbance differences at these chosen wavelengths were plotted against the pH of each buffer. The data were imported into the Origin 6.0 program, and the pK a values were determined with a nonlinear regression using eq : 1 Absorbancetotal=εHA−εA−[10^(pH−pKa)]/1+10^(pH−pKa)×[St]
εHA is the extinction coefficients of the acid form of the compound, and εA ^– is the extinction coefficient of the base form of the compound (i.e., the minima and maxima of the absorbance difference curve, respectively), and [S t] is the total compound concentration.

[10] = tested on: S. hygroscopicus jingganensis L-DOPA 2,3-dioxygenase (ShjDDO); assay: Presteady state stopped-flow kinetic assay, modeled with KinTek Explorer; format: biochemical, Streptomyces hygroscopicus jingganensis; conditions: ratio k6/k7; presteady state with ShjDDO
Protocol: Reaction temperature was controlled at 14 ± 0.5 °C by a circulating water bath. […] Stock solutions of 6-[…] prepared in DMSO. […] ShjDDO was reconstituted with iron(II) sulfate heptahydrate, gel filtered into the reaction buffer, and loaded into the drive syringe. […] Fifteen to twenty progress curves from the same experimental conditions were averaged in the KinTek Stopped Flow software and exported to KinTek Explorer for modeling. Between experiments, the instrument drive syringes were cleaned with acid, base, and water; soaked in 1% Hellmanex detergent for 30 min at ∼30-35 °C; thoroughly rinsed with water; and stored in 10% ethanol. […] state kinetic data were analyzed by fitting to simulated mechanisms using the KinTek Explorer software (KinTek Corp, Austin, TX). KinTek Explorer simulates experimental results by using direct numerical integration of rate equations for the kinetic model and yields estimates for the rate constants of microscopic steps. […] state experiments were modeled using KinTek Explorer according to a defined reaction pathway, as described in the Results and Discussion and shown in Scheme . The extinction coefficients of the DHHCA and 6-[…] semialdehyde products were independently determined as described above and fixed during fitting. Some rates were fixed as either “fast” (i.e., 1 × 10^9) or very slow (1 × 10^-12, i.e., ∼0) as described in the text. The equilibrium represented by k 1 and k -1 was fixed at the ratio of substrate charge states as predicted by the experimentally determined pK a values (Table ) and the Henderson-Hasselbach equation. Extinction coefficients were fitted and/or fixed during fitting as described in the text and interpreted using the observable expression: […], where a is the extinction coefficient applied to ESQ, b is the independently experimentally determined extinction coefficient on P, and c is a y-axis offset. […] ESO2 is the ternary complex of enzyme, substrate, and oxygen. ESQ represents the putative semiquinone intermediate, a UV-absorbing species, and ESQ_X is the species formed from the nonproductive quenching of the semiquinone. […] EP is the enzyme-product complex, and P is the free semialdehyde product. P can then degrade nonenzymatically to the spectroscopically silent P_X. Errors on each fit were calculated from 2[…] at 0.83 Chi^2. The KinTek Explorer program FitSpace explores the uniqueness of a particular fit to the data by measuring the dependence of the sum square error (SSE) on each pair of parameters, while allowing all other parameters to vary in seeking the best fit. […]

[11] = substrate: O=C(O)CCc1cc(O)c(O)cc1Br; assay: UV-visible steady-state assay of L-DOPA 2,3-dioxygenase (LmbB1); format: biochemical, Streptomyces lincolnensis; conditions: other: S. lincolnensis enzyme, pH 7.5, 22 °C
Protocol: as §1
as §2, with “Molecular oxygen percentages were converted to molar concentrations using a reference temperature of 22 °C. The reaction of L-DOPA 2,3-dioxygenases with DHHCA/6-X-DHHCA derivatives as a function of oxygen concentration was followed by the appearance of the steady-state cleavage product by using UV–visible spectroscopy.” left out
as §3, with “S52). […]” for “S52).”

[12] = substrate: N#Cc1cc(O)c(O)cc1CCC(=O)O; assay: as above; format: biochemical, Streptomyces lincolnensis; conditions: other: S. lincolnensis enzyme, pH 7.5, 22 °C
Protocol: as §1
as §2, with “Molecular oxygen percentages were converted to molar concentrations using a reference temperature of 22 °C. The reaction of L-DOPA 2,3-dioxygenases with DHHCA/6-X-DHHCA derivatives as a function of oxygen concentration was followed by the appearance of the steady-state cleavage product by using UV–visible spectroscopy.” left out
as §3, with “S52). […]” for “S52).”

[13] = substrate: O=C(O)CCc1ccc(O)c(O)c1; assay: as above; format: biochemical, Streptomyces lincolnensis; conditions: other: S. lincolnensis enzyme, pH 7.5, 22 °C
Protocol: as §1
as §2, with “Molecular oxygen percentages were converted to molar concentrations using a reference temperature of 22 °C. The reaction of L-DOPA 2,3-dioxygenases with DHHCA/6-X-DHHCA derivatives as a function of oxygen concentration was followed by the appearance of the steady-state cleavage product by using UV–visible spectroscopy.” left out
as §3, with “S52). […]” for “S52).”

[14] = percentage of the value for L-DOPA

T2 sequence (H2JL11 1-162): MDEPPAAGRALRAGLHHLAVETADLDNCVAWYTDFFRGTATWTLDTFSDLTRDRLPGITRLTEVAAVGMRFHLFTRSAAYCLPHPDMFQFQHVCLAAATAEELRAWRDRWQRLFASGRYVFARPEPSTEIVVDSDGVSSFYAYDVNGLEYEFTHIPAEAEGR

Molecule: N#Cc1cc(O)c(O)cc1CCN [Compound 6-cyanoDA]
CSEV (Å^3) relative to L-DOPA x 100 [1]: 94%
Catecholic pKa value relative to L-DOPA x 100 ([2]; percentage of L-DOPA): 80%
pK a value of dopamine counterpart ([2]; similarly 6-substituted dopamine): 7.03 ± 0.06
kSP, O2 (μM^-1 min^-1) at pH 7.5 relative to L-DOPA x 100 for LmbB1 [3]: 16%
E1/2 (mV) at pH 7.4 relative to L-DOPA x 100 [4]: 129%
kSP, O2 (μM^-1 min^-1) at pH 7.5 relative to L-DOPA x 100 for ShjDDO [5]: 3%

(E p)a Oxidation ([6]; pH 6.0, GCE (d = 2 mm)): 388 mV
E1/2 ([6]; pH 6.0, GCE (d = 2 mm)): 198.5 mV
Ipa/Ipc ([6]; pH 6.0, GCE (d = 2 mm)): 2.54
ΔE p ([6]; pH 6.0, GCE (d = 2 mm)): 379 mV
(E p)a Oxidation ([6]; pH 7.4, GCE (d = 2 mm)): 333 mV
(E p)c Reduction ([6]; pH 7.4, GCE (d = 2 mm)): –95 mV
E1/2 ([6]; pH 7.4, GCE (d = 2 mm)): 119 mV
Ipa/Ipc ([6]; pH 7.4, GCE (d = 2 mm)): 1.30
ΔE p ([6]; pH 7.4, GCE (d = 2 mm)): 428 mV
E1/2 (mV) at pH 7.4 relative to L-DOPA x 100 [6, 14]: 59%
activity / turnover as substrate ([7]; LmbB1, aerobic reaction observed by UV–visible spectroscopy): measurable activity
kcat at 22 °C and 100% O2 saturation ([7]; S. lincolnensis enzyme, pH 7.5): 2.1 ± 0.2 sec^–1
kSP,O2 × 10^2 at 22 °C ([7]; S. lincolnensis enzyme, values are kSP × 10^2): 19.2 ± 3.2 μM^–1 min^–1
kSP catechol × 10^2 at 22 °C ([7]; S. lincolnensis enzyme, values are kSP × 10^2, kSP = kcat/KM): 13.4 ± 2.5 μM^–1 min^–1
kSP, O2 (μM^-1 min^-1) at pH 7.5 relative to L-DOPA x 100 for LmbB1 [7, 14]: 23%
kcat at 22 °C and 100% O2 saturation ([8]; S. hygroscopicus jingganensis enzyme, pH 7.5): 6.7 × 10^–1 ± 5.0 × 10 ^–2 sec^–1
kSP,O2 × 10^2 at 22 °C ([8]; S. hygroscopicus jingganensis enzyme, values are kSP × 10^2): 17.7 ± 2.6 μM^–1 min^–1
kSP catechol × 10^2 at 22 °C ([8]; S. hygroscopicus jingganensis enzyme, values are kSP × 10^2, kSP = kcat/KM): 9.5 ± 2.3 μM^–1 min^–1
activity / turnover as substrate ([8]; ShjDDO, aerobic reaction observed by UV–visible spectroscopy): measurable activity
kSP, O2 (μM^-1 min^-1) at pH 7.5 relative to L-DOPA x 100 for ShjDDO [8, 14]: 13%
pK a value ([9]; first catecholic deprotonation, determined spectroscopically from pH 3 to 12.5): 8.87 ± 0.12
Catecholic pKa value relative to L-DOPA x 100 [9, 14]: 101%
productive formation of EI (k 6) faster than the rate of inactivation (k 7) [10]: ~40 times
Molecule: O=C(O)CCc1ccc(O)c(O)c1 [DHHCA (3), 3,4-dihydroxyhydrocinnamic acid]

B1: L-DOPA 2,3-dioxygenase from S. lincolnensis (LmbB1) (Streptomyces lincolnensis) (protein)
chain: MPSVKSMPPVSVHHVGVQTADLDNSISWYQEFFGCTVSWTLDTFSALTHSRLPGIERLAELRYGDVRFHHIGVKSGAAERSPAEANQFQHVCFAVGSPTELEAWRSRWLELYARGRWTFAVPERATDIDVDKDGVRSFYALDPNGLEYEFTYVPDGPR
Km [11]: 205 ± 24 µM
Km [12]: 131 ± 16 µM
Km [13]: 922 ± 152 µM
